For this test, the system named is Aspergillus flavus. The experiment in a line: Antifungal activity against Aspergillus flavus at 200 ug/disk by disk assay. In kind it is functional. The note with it: read-out: IZ.

The results in this text go back to ChEMBL document CHEMBL1150147, “Bioactive natural products from a sclerotium-colonizing isolate of Humicola fuscoatra” (2002).

For `CC(=O)O[C@@H]1C[C@]2(C)C3=C(CC[C@H]2C(C)(C)[C@@H]1O[C@@H]1O[C@H](CO)[C@@H](O)[C@H](O)[C@H]1O)[C@@]1(C)CC[C@](C)([C@H](C)C(C)C)[C@@H](C(=O)O)[C@]1(C)CC3` [FUSCOATROSIDE], the zone of inhibition at 200 µg/disc amounted to 18 mm.
